Where a name gives a salt, the structure may show the parent alone. Read-outs that look alike come from different tables or passages of the source.
Legend:
[1] = molecular target: T1, SARS-CoV-2 PLpro (nsp3 1564–1878) (Severe acute respiratory syndrome coronavirus 2, UniProt P0DTD1); assay: biochemical; design: FRET-quenched peptide (Pro3) cleavage by PLpro, 10 min pre-incubation, slope over 20 min, normalised to no-compound control; settings: high concentration screen, read-out: % of control remaining
[2] = molecular target: T1, SARS-CoV-2 PLpro (nsp3 1564–1878); assay: biochemical; design: FRET-quenched peptide (Pro3) cleavage by PLpro, 10 min pre-incubation, slope over 20 min, normalised to no-compound control; settings: low concentration screen, read-out: % of control remaining

## CC(C)Oc1ccc(C(=O)Cn2ccnc2)cc1-n1c(CN2CCN(C(=O)COc3ccc(Cl)cc3)CC2)nc2ccccc2c1=O [Imidazole ketone erastin]
[1]; Well no.=6884
  remaining activity at 3.75 µM: 97%
[2]; Well no.=6884
  remaining activity at 1.25 µM: 95.5%

## N#C/C(=C\c1ccc(O)c(O)c1)C(=O)NCCCNC(=O)/C(C#N)=C/c1ccc(O)c(O)c1 [Tyrphostin AG 537]
[1]; Well no.=1289
  remaining activity at 3.75 µM: 99.7%
[2]; Well no.=1289
  remaining activity at 1.25 µM: 103%

## O=C(O)/C=C/c1ccc(-c2ccc(O)c(C34CC5CC(CC(C5)C3)C4)c2)cc1 [Adarotene]
[1]; Well no.=6342
  remaining activity at 3.75 µM: 99%
[2]; Well no.=6342
  remaining activity at 1.25 µM: 101%

## C[C@H](CCCC(C)(C)O)[C@H]1CC[C@H]2[C@@H]3CC=C4C[C@@H](O)CC[C@]4(C)[C@H]3CC[C@]12C [25-Hydroxycholesterol]
[1]; Well no.=6353
  remaining activity at 3.75 µM: 101%
[2]; Well no.=6353
  remaining activity at 1.25 µM: 101%

## Cc1cc(Nc2cc(N3CCN(C)CC3)nc(/C=C/c3ccccc3)n2)n[nH]1 [ENMD-2076 L-(+)-Tartaric acid]
[1]; Well no.=5012
  remaining activity at 3.75 µM: 89.1%
[2]; Well no.=5012
  remaining activity at 1.25 µM: 101%

## Nc1ncn([C@H]2C[C@H](O)[C@@H](CO)O2)c(=O)n1 [Decitabine]
[1]; Well no.=5103
  remaining activity at 3.75 µM: 99.8%
[2]; Well no.=5103
  remaining activity at 1.25 µM: 102%

## CCOC(=O)C1=CCCC[C@H]1S(=O)(=O)Nc1ccc(F)cc1Cl [Resatorvid]
[1]; Well no.=8421
  remaining activity at 3.75 µM: 90.5%
[2]; Well no.=8421
  remaining activity at 1.25 µM: 90.4%

## O=C(O)c1ccccc1Nc1ccccc1 [N-Phenylanthranilic acid]
[1]; Well no.=51
  remaining activity at 3.75 µM: 95.6%
[2]; Well no.=51
  remaining activity at 1.25 µM: 101%

## CCOC(=O)/C=C/c1ccc(O)c(OC)c1 [Ferulic acid ethylester]
[1]; Well no.=3853
  remaining activity at 3.75 µM: 103%
[2]; Well no.=3853
  remaining activity at 1.25 µM: 97.6%

## O=c1[nH]nc(Sc2ncc([N+](=O)[O-])s2)n1-c1ccc2c(c1)OCCO2 [BI 78D3 - 4-(2,3-Dihydro-1,4-benzodioxin-6-yl)-2,4-dihydro-5-[(5-nitro-2-thiazolyl)thio]-3H-1,2,4-triazol-3-one]
[1]; Well no.=2684
  remaining activity at 3.75 µM: 97.1%
[2]; Well no.=2684
  remaining activity at 1.25 µM: 95.6%

## C=C1C(=O)O[C@@H]2C[C@@]3(C)CCCC(=C)[C@@H]3C[C@H]12 [Isoalantolactone]
[1]; Well no.=6728
  remaining activity at 3.75 µM: 93.6%
[2]; Well no.=6728
  remaining activity at 1.25 µM: 97.1%

## COc1cc(O)c(C(=O)/C=C/c2ccccc2)c(OC)c1 [Flavokawain B]
[1]; Well no.=3685
  remaining activity at 3.75 µM: 100%
[2]; Well no.=3685
  remaining activity at 1.25 µM: 98.5%

## O=C(O)c1ccccn1 [PCL 016]
[1]; Well no.=7107
  remaining activity at 3.75 µM: 98.2%
[2]; Well no.=7107
  remaining activity at 1.25 µM: 99.9%

## C[C@@H](Oc1cc(-n2cnc3ccc(CN4CCN(C)CC4)cc32)sc1C(N)=O)c1ccccc1C(F)(F)F [GSK461364]
[1]; Well no.=5146
  remaining activity at 3.75 µM: 103%
[2]; Well no.=5146
  remaining activity at 1.25 µM: 102%

## CN(C)c1ccc(/C=C2\C(=O)Nc3ccccc32)cc1 [SU 4312 - 3-[[4-(dimethylamino)phenyl]methylene]-1,3-dihydro-2H-indol-2-one]
[1]; Well no.=2430
  remaining activity at 3.75 µM: 109%
[2]; Well no.=2430
  remaining activity at 1.25 µM: 106%

## Cn1ccnc1 [1-Methylimidazole]
[1]; Well no.=939
  remaining activity at 3.75 µM: 102%
[2]; Well no.=939
  remaining activity at 1.25 µM: 101%

## Cc1ncc(CN2CC=C(c3ccccc3)CC2)c(N)n1 [Ro 10-5824 (dihydrochloride)]
[1]; Well no.=7039
  remaining activity at 3.75 µM: 106%
[2]; Well no.=7039
  remaining activity at 1.25 µM: 105%

## Nc1nccc(-c2c(-c3ccc(F)cc3)ncn2C2CCCCC2)n1 [4-[1-cyclohexyl-4-(4-fluorophenyl)-1H-imidazol-5-yl]-2-pyrimidinamine dihydrochloride]
[1]; Well no.=5961
  remaining activity at 3.75 µM: 102%
[2]; Well no.=5961
  remaining activity at 1.25 µM: 102%

## CCN(CC)CCOC(=O)C(c1ccccc1)c1ccccc1 [Adiphenine HCl]
[1]; Well no.=5060
  remaining activity at 3.75 µM: 105%
[2]; Well no.=5060
  remaining activity at 1.25 µM: 105%

## Cc1cccc(Nc2cc(Cl)nc(SCC(=O)O)n2)c1C [WY-14643]
[1]; Well no.=4570
  remaining activity at 3.75 µM: 103%
[2]; Well no.=4570
  remaining activity at 1.25 µM: 97.3%

## COc1cc2ncc(-c3ccccc3)nc2cc1OC [AG 1296]
[1]; Well no.=2613
  remaining activity at 3.75 µM: 90.5%
[2]; Well no.=2613
  remaining activity at 1.25 µM: 91.6%

## CN1CCCC1c1cccnc1 (single isomer, unassigned; (-)) [(-)-Nicotine hydrogen tartrate salt]
[1]; Well no.=809
  remaining activity at 3.75 µM: 92.5%
[2]; Well no.=809
  remaining activity at 1.25 µM: 95.3%

## COc1ccc(CCN(C)CCCC(C#N)(c2ccc(OC)c(OC)c2)C(C)C)cc1OC (stereo not drawn) [Verapamil]
[1]; Well no.=1721
  remaining activity at 3.75 µM: 100%
[2]; Well no.=1721
  remaining activity at 1.25 µM: 100%

## CO[C@H]1CC[C@@H](O[C@H]2C[C@H]([C@]3(C)CC[C@]4(C[C@H](O)[C@@H](C)[C@@H]([C@@H](C)/C=C(\C)C(=O)[C@H](C)C[C@H](C)C(=O)O)O4)O3)O[C@]3(O[C@@H]([C@H]4O[C@@](O)(CO)[C@H](C)C[C@@H]4C)C[C@@H]3C)[C@@H]2C)O[C@@H]1C [Nanchangmycin]
[1]; Well no.=4861
  remaining activity at 3.75 µM: 104%
[2]; Well no.=4861
  remaining activity at 1.25 µM: 101%

## O=C(O)/C=C\C(=O)O [Maleic Acid]
[1]; Well no.=6593
  remaining activity at 3.75 µM: 101%
[2]; Well no.=6593
  remaining activity at 1.25 µM: 100%

## CC1=C(C)C(=O)C(CCCCC#CCCCC#CCO)=C(C)C1=O [AA-861]
[1]; Well no.=109
  remaining activity at 3.75 µM: 103%
[1]; Well no.=3941
  remaining activity at 3.75 µM: 102%
[2]; Well no.=109
  remaining activity at 1.25 µM: 106%
[2]; Well no.=3941
  remaining activity at 1.25 µM: 105%

## O=c1cc(-c2ccccc2)oc2cc(O)cc(O)c12 [Chrysine]
[1]; Well no.=3276
  remaining activity at 3.75 µM: 100%
[2]; Well no.=3276
  remaining activity at 1.25 µM: 101%

## COc1ccc([C@]2(O)CC[C@@H](N3CC[C@@H](NC(=O)CNC(=O)c4cccc(C(F)(F)F)c4)C3)CC2)cn1 [INCB 3284]
[1]; Well no.=8271
  remaining activity at 3.75 µM: 99.4%
[2]; Well no.=8271
  remaining activity at 1.25 µM: 102%

## Oc1ccc2ccccc2c1 [2-Naphthol]
[1]; Well no.=7155
  remaining activity at 3.75 µM: 99.5%
[2]; Well no.=7155
  remaining activity at 1.25 µM: 103%

## O=c1cc(N2CCOCC2)oc2c(-c3ccccc3)cccc12 [LY-294,002 hydrochloride]
[1]; Well no.=1077
  remaining activity at 3.75 µM: 90.8%
[2]; Well no.=1077
  remaining activity at 1.25 µM: 93.7%

## O=C(O)/C=C/C=C/C(=O)O [trans-trans-Muconic acid]
[1]; Well no.=6589
  remaining activity at 3.75 µM: 106%
[2]; Well no.=6589
  remaining activity at 1.25 µM: 103%

## O=C(O)c1cc(=O)[nH]c(=O)[nH]1 [Orotic acid (6-Carboxyuracil)]
[1]; Well no.=8146
  remaining activity at 3.75 µM: 98.3%
[2]; Well no.=8146
  remaining activity at 1.25 µM: 105%

## CCN(CC)CCNC(=O)c1cc(Cl)c(N)cc1OC [Metoclopramide hydrochloride]
[1]; Well no.=966
  remaining activity at 3.75 µM: 103%
[2]; Well no.=966
  remaining activity at 1.25 µM: 100%

## CC(CN)C(=O)O (stereo not drawn) [3-Amino-2-methylpropanoic acid]
[1]; Well no.=6787
  remaining activity at 3.75 µM: 97.6%
[2]; Well no.=6787
  remaining activity at 1.25 µM: 101%

## CC1CCN(CC[C@H]2CCCN2S(=O)(=O)c2cccc(O)c2)CC1 [SB 269970 hydrochloride]
[1]; Well no.=1220
  remaining activity at 3.75 µM: 104%
[2]; Well no.=1220
  remaining activity at 1.25 µM: 102%

From PMC8286840, “Identifying SARS-CoV-2 antiviral compounds by screening for small molecule inhibitors of Nsp3 papain-like protease” (Biochemical Journal, 2021)
